Measurements: paper PMC5809414, “Physician-initiated clinical study of limb ulcers treated with a functional peptide, SR-0379: from discovery to a randomized, double-blind, placebo-controlled trial” (NPJ Aging and Mechanisms of Disease, 2018)
Where “and” joins values, the source holds several entries; their conditions need not be identical. Equal entries are not always repeated. Where a SMILES comes first, the peptide text is derived from it. [ ]: non-standard residue; d: D form.

How the values were obtained:
[1] = system: leg ulcers; test: Phase I/IIa randomized, double-blind, placebo-controlled study: wound size, closure, DESIGN-R, overall improvement; format: in vivo, human; conditions: for skin ulcer rate of reduction at the final evaluation (4th week or discontinuation): vs pre-treatment wound size, mean ± SD; for skin ulcer rate of reduction at the final evaluation (4th week or discontinuation) / Overall improvement, Mild: number of patients / Overall improvement, Moderate: number of patients / Overall improvement, No change: number of patients / Overall improvement, Worse: number of patients / Skin ulcer size, 2 weeks after treatment (mean ± SD) / Skin ulcer size, Post-treatment (mean ± SD) / Wound closure, Yes: number of patients (%) / DESIGN-R total score, Post-mean (SD) / Overall improvement, Significant: number of patients: n = 3; for DESIGN-R total score, Pre-mean (SD): n = 3, baseline; for DESIGN-R total score, Pre-mean (SD) / DESIGN-R total score, Post-mean (SD): depth excluded, 0 (healed) to 66; for Overall improvement, Significant: number of patients: evaluation by investigators
Method: GMP-grade SR-0379 peptide was generated by the American Peptide Company (Torrance, CA, USA). The peptide was dissolved in a physiological salt solution, and spray-type containers were charged with 10 mL of SR-0379 solution under GMP conditions by Nagase Medical Co. Ltd. (Itami, Hyogo, Japan). A total of 0.05 mL of SR-0379 solution was administered per spray using this container. According to the protocol, each patient received 0.25 mL of SR-0379 solution over five sprays once per day for 28 days.
The clinical trial was conducted as an investigator-initiated, phase I/IIa, randomized, double-blind, placebo-controlled trial at five hospitals (Osaka University Hospital, Osaka; Chiba University Hospital, Chiba; Asano-Kanamachi Clinic, Tokyo; Medical Plaza Shinozakieki Nishiguchi, Tokyo; and Kasukabe Chuo General Hospital, Saitama) in Japan. Twelve patients were randomized into four groups and treated with 0.02%, 0.1%, or 0.5% SR-0379 or placebo treatment. The inclusion criteria for this clinical trial were: (1) adult (age≧20 years), (2) a diagnosis of diabetic ulcer or limb ulcer (artery or venous ulcer); and (3) wound size <6 cm in diameter. Exclusion criteria is (1) infection to be cured with antibiotics, (2) deep ulcer with reaching bone tissue, (3) skin ulcer with malignant tumor, (4) severe edema around skin ulcer, (5) patients with malignant tumor, (6) patients with severe heart failure, (7) patients with severe liver, kidney, and blood dysfunction, (8) malnutrition (serum albumin ≦2 g/dL), (9) poor general condition due to severe systemic infection, (10) poor control of hyperglycemia (HbA1c ≧9.0%), (11) pregnant women, and men or women who disagreed to avoid pregnancy during clinical trial period, (12) patients who changed from an oral to an intravenous drug to regulate blood flow (i.e., prostaglandin E1, prostacyclin I2) from 2 weeks before SR-0379 or placebo treatment, (13) surgical procedure for skin ulcer from 2 weeks before SR-0379 or placebo treatment, (14) attendance to other clinical trial from 12 weeks before SR-0379 or placebo treatment, and (15) judgment as an inappropriate patient by principle investigator. The study protocol was approved by the institutional review board of each hospital. Patients gave written informed consent before enrollment.
Twelve patients were randomized into four groups and treated with 0.02%, 0.1,% or 0.5% SR-0379 or placebo treatment. The allocation was generated by a computer program before starting the initial enrollment, and the allocation coordinator concealed the allocation information until the last patient finished. The placebo drug was indistinguishable in terms of appearance. The trial drugs were distributed to each hospital according to the allocation schedule for each patient. All study personnel and patients were masked to treatment group allocation.
SR-0379 (0.02%, 0.1%, and 0.5%) or placebo was topically administered after cleaning with soap once per day for 28 days. After treatment, the wound was covered with a piece of gauze. […] No topical wound healing drugs were used in combination with SR-0379 or placebo for the same skin ulcer, and the topical use of FGF2 (trafermin) was prohibited starting 2 weeks before treatment through the final treatment.
Upon study entry, clinical assessments, skin ulcer evaluations, blood and urine tests, chest radiographs, and ECGs were performed 1 week before treatment. Prior to the first treatment, clinical assessments and skin ulcer evaluations were performed, and plasma SR-0379 levels were measured at 15 and 60 min after the first treatment. After treatment, clinical assessments, skin ulcer evaluation, blood and urine tests, and ECGs were performed, and plasma SR-0379 levels were measured at 15 and 60 min after the final treatment. During the follow-up period (1 week after treatment), patients received appropriate treatment, including FGF2 (trafermin). […]

[2] = system: Pseudomonas aeruginosa, Staphylococcus aureus, MRSA, and Streptococcus pyogenes; test: Bacterial wound cultures (change pre to post); format: in vivo, human; conditions: n = 3
Method: The primary outcome was the rate of wound size reduction at 4 weeks after the first treatment compared with pre-treatment wound size. Additionally, the following secondary endpoints were measured at 4 weeks after the first treatment and compared with pre-treatment status: time to wound closure; 50% wound size reduction ratio; quantification of Pseudomonas aeruginosa, Staphylococcus aureus, MRSA, and Streptococcus pyogenes; and overall evaluated ulcer improvement. Ulcer size was quantified based on skin ulcer pictures according to a defined procedure using ImageJ software and calculated as the percent change. We also used the DESIGN-R score index, which is calculated based on six components (exudate, size, infection/inflammation, granulation tissue, necrotic tissue, and pocket size), as a tool to score pressure ulcer severity.[23] Depth was excluded from the calculation. The total score was calculated by weighting the score of each item; a high score indicates greater severity. The safety of SR-0379 was evaluated during the treatment period (28 days) every 7 days and post-treatment (7 days) according to the Common Terminology Criteria for Adverse Events (version 4.0).

CC[C@H](C)[C@H](NC(=O)[C@H](CC(C)C)NC(=O)[C@H](CCCCN)NC(=O)[C@H](CC(C)C)NC(=O)[C@@H](N)CCSC)C(=O)N[C@@H](Cc1ccccc1)C(=O)N[C@@H](CC(C)C)C(=O)N[C@@H](Cc1c[nH]cn1)C(=O)N[C@@H](CCCNC(=N)N)C(=O)N[C@@H](CC(C)C)C(=O)N[C@@H](CCCCN)C(=O)N[C@@H](CCCNC(=N)N)C(=O)N[C@@H](CCSC)C(=O)N[C@@H](CCCNC(=N)N)C(=O)N[C@@H](CCCCN)C(=O)N[C@@H](CCCNC(=N)N)C(=O)N[C@@H](CC(C)C)C(=O)N[C@H](CCCCN)C(=O)N[C@@H](CCCNC(=N)N)C(=O)N[C@@H](CCCCN)C(=O)O [SR-0379] (H-MLKLIFLHRLKRMRKRL[dK]RK-OH; N-terminus and C-terminus assumed)
Size reduction (percent decrease) of skin ulcers, mean ([1]; 0.02% SR-0379, 2 weeks after treatment): -3.157% | Size decrease, single patient ([1]; 0.02% SR-0379, diabetic ulcer, foot (lateral malleolus), Werner Syndrome patient): 61.45% | Size decrease, single patient ([1]; 0.02% SR-0379, diabetic ulcer, low leg): 75.00% | Size decrease, single patient ([1]; 0.02% SR-0379, ischemic ulcer, finger): -2.27% | skin ulcer rate of reduction at the final evaluation (4th week or discontinuation) ([1]; 0.02% SR-0379 topical once per day for 28 days): 44.73 ± 41.26% and 44.727% | Overall improvement, Mild: number of patients ([1]; 0.02% group): 1 | Overall improvement, Moderate: number of patients ([1]; 0.02% group): 1 | Overall improvement, No change: number of patients ([1]; 0.02% group): 0 | Overall improvement, Worse: number of patients ([1]; 0.02% group): 1 | Skin ulcer size, 2 weeks after treatment (mean ± SD) ([1]; 0.02% group): 0.777 ± 0.783 | Skin ulcer size, Post-treatment (mean ± SD) ([1]; 0.02% group): 0.563 ± 0.698 | Wound closure, Yes: number of patients (%) ([1]; 0.02% group): 0 (0%) | DESIGN-R total score, Pre-mean (SD) ([1]; 0.02% group): 9.3 (4.7) | DESIGN-R total score, Post-mean (SD) ([1]; 0.02% group): 4.3 (1.5) | Overall improvement, Significant: number of patients ([1]; 0.02% group): 1 | Size reduction (percent decrease) of skin ulcers, mean ([1]; 0.1% SR-0379, 2 weeks after treatment): 38.36% | Size decrease, single patient ([1]; 0.1% SR-0379, diabetic ulcer, foot (heel), Werner Syndrome patient): 34.93% | Size decrease, single patient ([1]; 0.1% SR-0379, diabetic ulcer, foot, patient with skin abrasion): 87.50% | Size decrease, single patient ([1]; 0.1% SR-0379, ischemic ulcer, finger): 82.32% | skin ulcer rate of reduction at the final evaluation (4th week or discontinuation) ([1]; 0.1% SR-0379 topical once per day for 28 days): 68.25 ± 28.98% and 68.247% | Overall improvement, Mild: number of patients ([1]; 0.1% group): 1 | Overall improvement, Moderate: number of patients ([1]; 0.1% group): 1 | Overall improvement, No change: number of patients ([1]; 0.1% group): 0 | Overall improvement, Worse: number of patients ([1]; 0.1% group): 0 | Skin ulcer size, 2 weeks after treatment (mean ± SD) ([1]; 0.1% group): 0.320 ± 0.381 | Skin ulcer size, Post-treatment (mean ± SD) ([1]; 0.1% group): 0.473 ± 0.488 | Wound closure, Yes: number of patients (%) ([1]; 0.1% group): 0 (0%) | DESIGN-R total score, Pre-mean (SD) ([1]; 0.1% group): 9.0 (1.0) | DESIGN-R total score, Post-mean (SD) ([1]; 0.1% group): 5.3 (4.0) | Overall improvement, Significant: number of patients ([1]; 0.1% group): 1 | Size reduction (percent decrease) of skin ulcers, mean ([1]; 0.5% SR-0379, 2 weeks after treatment): 14.443% | Size decrease, single patient ([1]; 0.5% SR-0379, diabetic ulcer, foot, complete ulcer closure): 100% | Size decrease, single patient ([1]; 0.5% SR-0379, venous ulcer, low leg): 14.84% | skin ulcer rate of reduction at the final evaluation (4th week or discontinuation) ([1]; 0.5% SR-0379 topical once per day for 28 days): 71.61 ± 49.17% and 71.613% | Overall improvement, Mild: number of patients ([1]; 0.5% group): 0 | Overall improvement, Moderate: number of patients ([1]; 0.5% group): 3 | Overall improvement, No change: number of patients ([1]; 0.5% group): 0 | Overall improvement, Worse: number of patients ([1]; 0.5% group): 0 | Skin ulcer size, 2 weeks after treatment (mean ± SD) ([1]; 0.5% group): 1.910 ± 3.179 | Skin ulcer size, Post-treatment (mean ± SD) ([1]; 0.5% group): 1.760 ± 3.048 | DESIGN-R total score, Pre-mean (SD) ([1]; 0.5% group): 12.0 (7.2) | DESIGN-R total score, Post-mean (SD) ([1]; 0.5% group): 5.3 (5.1) | Overall improvement, Significant: number of patients ([1]; 0.5% group): 0 | Bacterial wound cultures, Decrease: number of patients ([2]; 0.02% group): 2 | Bacterial wound cultures, Increase: number of patients ([2]; 0.02% group): 1 | Bacterial wound cultures, No change: number of patients ([2]; 0.02% group): 0 | Bacterial wound cultures, Decrease: number of patients ([2]; 0.1% group): 2 | Bacterial wound cultures, Increase: number of patients ([2]; 0.1% group): 0 | Bacterial wound cultures, No change: number of patients ([2]; 0.1% group): 1 | Bacterial wound cultures, Decrease: number of patients ([2]; 0.5% group): 1 | Bacterial wound cultures, Increase: number of patients ([2]; 0.5% group): 0 | Bacterial wound cultures, No change: number of patients ([2]; 0.5% group): 1
